This assay concerns the target T1, Protein-glutamine gamma-glutamyltransferase 2 (Cavia cutleri, UniProt P08587).
T1 sequence (P08587 whole entry): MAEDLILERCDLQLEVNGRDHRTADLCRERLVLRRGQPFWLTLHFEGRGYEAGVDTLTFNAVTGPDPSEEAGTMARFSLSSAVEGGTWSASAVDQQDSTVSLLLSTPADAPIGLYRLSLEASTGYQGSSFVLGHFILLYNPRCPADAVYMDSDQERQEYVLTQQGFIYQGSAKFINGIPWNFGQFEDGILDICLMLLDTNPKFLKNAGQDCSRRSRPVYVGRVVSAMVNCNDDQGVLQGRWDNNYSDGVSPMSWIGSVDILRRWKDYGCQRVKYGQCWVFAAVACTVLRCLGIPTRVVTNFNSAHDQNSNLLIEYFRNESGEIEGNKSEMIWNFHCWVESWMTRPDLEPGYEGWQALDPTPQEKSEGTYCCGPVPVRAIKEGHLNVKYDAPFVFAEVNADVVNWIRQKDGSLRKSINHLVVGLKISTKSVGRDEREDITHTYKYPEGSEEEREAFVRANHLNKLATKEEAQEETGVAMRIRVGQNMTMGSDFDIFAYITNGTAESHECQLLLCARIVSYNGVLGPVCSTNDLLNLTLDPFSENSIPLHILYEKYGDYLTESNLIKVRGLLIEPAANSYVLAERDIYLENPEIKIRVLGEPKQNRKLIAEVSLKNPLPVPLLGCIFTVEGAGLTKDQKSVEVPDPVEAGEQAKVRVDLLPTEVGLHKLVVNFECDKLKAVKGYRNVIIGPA
In words: Enzyme Inhibition Assay: For enzymology studies of these compounds, recombinant guinea pig liver TGase was expressed in Escherichia coli and effectively purified (Gillet, S. M. F. G. et al J. N., Prot. Exp. & Purif. 2004, 33, 256). […] The mode of inhibition was determined for the representative lead compound.

Consider `O=C(/C=C/c1ccc([N+](=O)[O-])cc1)n1ccnc1`, for which the IC50 was > 20 µM.

For the compound `O=C(/C=C/c1ccc([N+](=O)[O-])cc1)NCc1ccccc1`, the IC50 is > 50 µM.
